Results: patent US7202035B2, “Genetic markers for skatole metabolism” (University of Guelph, priority 1999, dated 2007)
Values joined by “and” are separate entries in the source; they are usually repeats but may differ in a detail not shown here. Equal entries are not always repeated. “Also recorded” adds a separate entry of the source.

What was measured:
[1] = Microsomal incubations of 3MI: production of 3MI metabolites by pig liver microsomes (HPLC); type: in vitro ADME; conditions: for Maximum rate of production: highest of 30 pig liver microsome samples; for Minimum rate of production: lowest of 30 pig liver microsome samples; for Rate of Production (pmol/mg prot./min) ±SD: metabolite formed from 0.4 mM 3MI, mean ±SD, n = 30
Protocol: Preparation of microsomes.
Microsomal incubations. […] C. (production of metabolites was determined to be linear over a range of 10 to 40 min). Incubation volumes were 0.5 ml. Reactions were started by the addition of NADPH after 3-minute preincubation periods at 37° C., and stopped with 0.5 ml of ice-cold acetonitrile. Incubations of all 30 samples were run in duplicate and for control incubations NADPH was omitted. […] A 50 μl aliquot of the clear supernatant was analyzed by high-performance liquid chromatography (HPLC).
Analytical chromatography. […] Absorbance was monitored at 250 nm; fluorescence was monitored at excitation and emission wavelengths of 286 and 350 nm, respectively. HPLC analysis for 3MI metabolites was conducted immediately after the incubations. Metabolites were identified by comparison of retention times, and co-injection of standards (spiking the metabolite mixture with authentic standards).

[2] = rat liver microsomes incubated with 3-MI; cited from earlier work
aldehyde oxidase [3] = test: Hepatic aldehyde oxidase activity measured as formation of HMOI from HMI by cytosol; type: in vitro ADME, pig
Text: Preparation of porcine liver cytosol.
Chromatographic analysis. […] Absorbance was monitored at 250 nm.

[4] = Skatole level in backfat of CYP2A6 deletion mutant and wild type pigs (colorimetric assay); type: in vivo, pig; conditions: sample with CYP2A6 deletion mutation
Protocol: A backfat sample was collected at the midline point of 11th rib and frozen at −20° C. until assayed for skatole. The skatole content was measured with a colorimetric assay, according to the method described by Gonzalo et al. (2000).

[5] = Measurement of 3MI fat content in backfat (colorimetric assay); type: in vivo, pig
Text: Measurement of 3MI fat content. For the quantitation of the 3MI fat content, a sample of backfat was taken from each pig and its 3MI content measured with a colorimetric assay (Mortensen and Sorensen, 1984). All analysis were done in duplicate.

[6] = Stability of isolated UV-1 in acetonitrile:water solution at room temperature (HPLC at 7-day intervals); type: physicochemical
Protocol: UV Spectroscopy. The UV spectrum of the metabolites identified on the basis of their retention times on HPLC (HMOI, 3MOI, I3C, and 2-aminoacetophenone) were identical to those of authentic standards. Spectra of metabolites were recorded using water as solvent, and the wavelengths of maximal absorption were as follows: HMOI: λmax (nm): 208, 253; 3MOI: λmax (nm): 205, 252; I3C: λmax (nm): 221, 278; 2-aminoacetophenone: λmax (nm): 228, 257. The UV spectrum of 3-methylindole was: λmax (nm): 224, 281. The UV spectrum of UV-1 metabolite was: λmax (nm): 204, 238. […] Isolated UV-1 was kept in acetonitrile:water solution at room temperature and the solution was analyzed by HPLC at 7-day intervals for 6 weeks. After 6 weeks only about 25% of the original compound remained and it was observed that UV-1 was converted into 3MOI.

aldehyde oxidase [7] = conditions: up to 1.0 mM in the assay mixture
aldehyde oxidase [8] = test: in vitro; conditions: male, pig, porcine liver cytosol, pH 7.4, probe HMI (conversion to HMOI)

| SMILES | Maximum rate of production [1] [pmol/mg prot./min] | Minimum rate of production [1] [pmol/mg prot./min] | Rate of Production (pmol/mg prot./min) ±SD ([1]; pig liver microsomes) | Percentage of all 3MI metabolites produced (average) ([1]; pig liver microsomes) [%] | also measured |
| --- | --- | --- | --- | --- | --- |
| NCC(=O)c1ccccc1 [2-aminoacetophenone] | 12.7 | 3.4 | 7.8 ± 2.4 pmol/mg prot./min | 0.5 | Percentage of the metabolites formed [2]: 12% |
| O=CNCC(=O)c1ccccc1 [2-formamidoacetophenone] |  |  |  |  | Percentage of the metabolites formed [2]: 33% |
| CC1(O)C(=O)Nc2ccccc21 (centres unmarked) [3-hydroxy-3-methyloxindole] | 516.5 | 118.9 | 272.4 ± 91.6 pmol/mg prot./min | 18.5 | Mean aldehyde oxidase activity (nmol HMOI/mg prot./min) (aldehyde oxidase [3]; High accumulator pigs, n 7): 0.80 nmol HMOI/mg prot./min; Mean aldehyde oxidase activity (nmol HMOI/mg prot./min) (aldehyde oxidase [3]; Low accumulator pigs, n 8): 2.73 nmol HMOI/mg prot./min; Mean aldehyde oxidase activity (nmol HMOI/mg prot./min) (aldehyde oxidase [3]; Moderate accumulator pigs, n 15): 1.40 nmol HMOI/mg prot./min; AO activity, mean (aldehyde oxidase [3]; all samples, 30 pigs): 1.27 nmol HMOI/mg protein/min; AO activity, range (aldehyde oxidase [3]; all samples, 30 pigs): 0.25 to 3.53 nmol HMOI/mg protein/min |
| Cc1c[nH]c2ccccc12 [3-methylindole] |  |  |  |  | Skatole level in fat versus wild type samples [4]: much higher; Mean 3-methylindole content (mg/kg) in fat ([5]; High accumulator pigs (0.2 mg/kg or more), n 7): 0.24 mg/kg; Mean 3-methylindole content (mg/kg) in fat ([5]; Low accumulator pigs (0.1 mg/kg or less), n 8): 0.09 mg/kg; Mean 3-methylindole content (mg/kg) in fat ([5]; Moderate accumulator pigs (0.11–0.19 mg/kg), n 15): 0.15 mg/kg; 3MI fat content, mean ([5]; all samples, 30 pigs): 0.15 mg/kg; 3MI fat content, range ([5]; all samples, 30 pigs): 0.07 to 0.3 mg/kg |
| CC1C(=O)Nc2ccccc21 (centres unmarked) [3-methyloxindole] | 700.8 | 234.4 | 420.9 ± 118.1 pmol/mg prot./min | 27.9 | Percentage of the metabolites formed [2]: 5% |
| Cc1c[nH]c2ccc(O)cc12 [5-OH-3-methylindole] | 27.3 | 0.7 | 5.1 ± 5.8 pmol/mg prot./min | 0.3 | Rate of Production (pmol/mg prot./min) ±SD ([1]; pig liver microsomes, listed as 5-OH-3MI): 5.1 pmol/mg prot./min |
| Cc1c[nH]c2cc(O)ccc12 [6-OH-3-methylindole, 6-OH-3-methylindole] | 213.7 |  | 58.4 ± 47.2 pmol/mg prot./min | 4.9 | Average rate of production relative to the 5 isomer ([1]; 6-OH-3MI versus 5-OH-3MI, pig liver microsomes): approximately eleven times greater |
| OCc1c[nH]c2ccccc12 [Indole-3-carbinol, indole-3-carbinol] | 85.7 | 12.1 | 37.1 ± 15.8 pmol/mg prot./min |  |  |
| CC1(O)C=Nc2ccccc21 (centres unmarked) [UV-1, 3-hydroxy-3-methylindolenine] | 1556.3 | 180.5 | 750.7 pmol/mg prot./min and 750.7 ± 414.5 pmol/mg prot./min | 45.1 | Stability (in words) [6]: unstable compound; Original compound remaining ([6]; acetonitrile:water solution, room temperature, after 6 weeks, converted into 3MOI): about 25% |
| Oc1ncnc2[nH]ncc12 [allopurinol] |  |  |  |  | Effect on the conversion of HMI to HMOI (aldehyde oxidase [7]): did not affect; also recorded: lack of inhibition |
| CCN(CC)CCCC(C)Nc1c2ccc(Cl)cc2nc2ccc(OC)cc12 (centres unmarked) [quinacrine] |  |  |  |  | activity at 10 min, 50 µM (aldehyde oxidase [8]): 75.5%; activity at 10 min, 1 mM (aldehyde oxidase [8]): 43.4% |
